This is an account of results in US20040072992A1, “Novel peptide capable of specifically acting on biological membrane” (priority 2002, published 2004).

Converted amounts (≈) assume the structure as drawn. Where two headings read alike, the source gives them in different places. Where a SMILES comes first, the peptide text is derived from it. Where no end group is shown, it is not given here.

In one data set the test system is S. enteritidis ATCC1891. Particulars: ATCC1891, 18 h.
The subject of another data set is E. coli CR-3. As to conditions: CR-3, 18 h.
A further data set deals with E. coli JCM1649. As to conditions: JCM1649, 18 h.
Another data set has as its system S. aureus JCM2413. Particulars: JCM2413, 18 h.
In another data set the test system is S. aureus IFO13276. As to conditions: IFO13276, 18 h.
The test system of the next data set is B. subtilis IFO13722. As to conditions: IFO13722, 18 h.
Another data set relates to B. sereus IFO3457. Particulars: 18 h.
A further data set deals with E. coli CE-273. Particulars: CE-273, 18 h.
The next data set deals with S. enteritidis ATC14028. Particulars: ATC14028, 18 h.
The next data set relates to erythrocytes. As to conditions: for Hemolytic property (relative value): red cells of human.

As a reminder, the MIC is the least concentration at which growth counts as inhibited. A high value points to a less susceptible organism. On to `CC(C)C[C@H](NC(=O)[C@H](C)N)C(=O)N[C@@H](CCCNC(=N)N)C(=O)O` [ALR] (H-Ala-Leu-Arg-OH), for which the minimum inhibitory concentration (MIC) in the data set on S. enteritidis ATCC1891, in the data set on E. coli CR-3, in the data set with E. coli JCM1649, against S. aureus JCM2413, against S. aureus IFO13276 and against B. subtilis IFO13722 was greater than 200 µM each time. For the same compound, the minimum inhibitory concentration (MIC) in the data set with B. sereus IFO3457, against E. coli CE-273 and against S. enteritidis ATC14028 was greater than 200 µM in each case.

Regarding `CC(C)[C@H](NC(=O)[C@@H](N)CCCCN)C(=O)NCC(=O)O` [KVG] (H-Lys-Val-Gly-OH), the MIC is greater than 800 µM in the data set with S. enteritidis ATCC1891; 800 µM (≈ 242 µg/mL) in the data set with E. coli CR-3; greater than 800 µM against E. coli JCM1649; 800 µM (≈ 242 µg/mL) in the data set with S. aureus JCM2413; greater than 800 µM against S. aureus IFO13276; greater than 800 µM against B. subtilis IFO13722. Besides, the MIC in the data set with B. sereus IFO3457 is greater than 800 µM; with E. coli CE-273, 800 µM (≈ 242 µg/mL); in the data set on S. enteritidis ATC14028, 800 µM (≈ 242 µg/mL).

For `CC(C)C[C@H](NC(=O)[C@@H](NC(=O)[C@@H](N)CCCCN)C(C)C)C(=O)O` [KVL] (H-Lys-Val-Leu-OH), the MIC was greater than 800 µM against S. enteritidis ATCC1891; 800 µM (≈ 287 µg/mL) with E. coli CR-3; greater than 800 µM in the data set with E. coli JCM1649; 400 µM (≈ 143 µg/mL) with S. aureus JCM2413; 800 µM (≈ 287 µg/mL) in the data set with S. aureus IFO13276; 800 µM (≈ 287 µg/mL) in the data set with B. subtilis IFO13722. The MIC against B. sereus IFO3457, in the data set with E. coli CE-273 and in the data set with S. enteritidis ATC14028 was 800 µM (≈ 287 µg/mL) in each case.

For `CC(C)[C@H](NC(=O)[C@@H](N)CCCNC(=N)N)C(=O)NCC(=O)O` [RVG] (H-Arg-Val-Gly-OH), the MIC is greater than 800 µM in the data set with S. enteritidis ATCC1891; 800 µM (≈ 264 µg/mL) in the data set with E. coli CR-3; greater than 800 µM in the data set on E. coli JCM1649; 800 µM (≈ 264 µg/mL) with S. aureus JCM2413; greater than 800 µM against S. aureus IFO13276; greater than 800 µM against B. subtilis IFO13722. Besides, the MIC in the data set with B. sereus IFO3457 is greater than 800 µM; against E. coli CE-273 it was 800 µM (≈ 264 µg/mL); with S. enteritidis ATC14028, 800 µM (≈ 264 µg/mL).

For the compound `CC(C)C[C@H](NC(=O)[C@@H](NC(=O)[C@@H](N)CCCNC(=N)N)C(C)C)C(=O)O` [RVL] (H-Arg-Val-Leu-OH), the MIC against S. enteritidis ATCC1891 was greater than 800 µM; in the data set on E. coli CR-3 it was 800 µM (≈ 309 µg/mL); against E. coli JCM1649, greater than 800 µM; in the data set with S. aureus JCM2413, greater than 800 µM; with S. aureus IFO13276, greater than 800 µM; in the data set with B. subtilis IFO13722 it was greater than 800 µM. Moreover, the MIC is greater than 800 µM in the data set on B. sereus IFO3457, greater than 800 µM in the data set on E. coli CE-273 and 800 µM (≈ 309 µg/mL) against S. enteritidis ATC14028.

In the case of ALRALRALRALRALR [ALR5, ALRALRALRALRALR], the MIC turned out to be 100 µM with S. enteritidis ATCC1891; 100 µM against E. coli JCM1649; 200 µM with S. aureus JCM2413; 400 µM against S. aureus IFO13276; 25 µM in the data set with B. subtilis IFO13722; 100 µM in the data set on B. sereus IFO3457. The compound further yielded an MIC in the data set on E. coli CE-273 of 100 µM.

Turning to GWALR [Ribo-2, GWALR], the MIC in the data set on S. enteritidis ATCC1891 is 800 µM; in the data set with E. coli CR-3 it was 800 µM; against E. coli JCM1649, greater than 800 µM; in the data set with S. aureus JCM2413, 800 µM; with S. aureus IFO13276, greater than 800 µM; in the data set on B. subtilis IFO13722 it was greater than 800 µM. The MIC was greater than 800 µM in the data set with B. sereus IFO3457, greater than 800 µM in the data set on E. coli CE-273 and 800 µM against S. enteritidis ATC14028.

Consider “INWKGIAAMAKKLL [mastoparanX, INWKGIAAMAKKLL, reference compound]”, for which the “Hemolytic property, in words” value in the data set on erythrocytes is listed as “high level of hemolytic property”. In addition, the “Hemolytic property (relative value)” value with erythrocytes (1 μM) stood at 5.4%; in the data set on erythrocytes (5 μM) it was 18.8%; with erythrocytes (10 μM), 86%; in the data set on erythrocytes (100 μM), 93%. For the same compound, the MIC with S. enteritidis ATCC1891 came to 3.1 µM; with E. coli CR-3, 3.1 µM; in the data set with E. coli JCM1649, 3.1 µM; in the data set with S. aureus JCM2413 it was 12.5 µM; against S. aureus IFO13276 it was 1.56 µM; with B. subtilis IFO13722, 3.1 µM. The MIC was determined as 3.1 µM against B. sereus IFO3457, 3.1 µM against E. coli CE-273 and 6.3 µM against S. enteritidis ATC14028.

As for KNRKGIAGMAKKLLGNKWKLM [mastWR], the MIC came out at 12.5 µM with S. enteritidis ATCC1891; 25 µM in the data set on E. coli CR-3; 50 µM against E. coli JCM1649; 50 µM against S. aureus JCM2413; 50 µM against S. aureus IFO13276; 50 µM in the data set on B. subtilis IFO13722. For the same compound, the MIC is 50 µM with B. sereus IFO3457, 12.5 µM in the data set with E. coli CE-273 and 25 µM with S. enteritidis ATC14028.

Consider KNWKGIAGMAKKLLGKNWKLM-NH2 [mast21N], for which, in the data set with erythrocytes (100 μM), the “Hemolytic property (relative value)” value worked out at 13%. Besides, the MIC was determined as 6.3 µM in the data set with S. enteritidis ATCC1891; 3.1 µM against E. coli CR-3; 3.1 µM with E. coli JCM1649; 12.5 µM against S. aureus JCM2413; 12.5 µM in the data set on S. aureus IFO13276; 3.1 µM against B. subtilis IFO13722. Also, the figures for the MIC with B. sereus IFO3457, in the data set on E. coli CE-273 and against S. enteritidis ATC14028 were 3.1 µM, 3.1 µM and 6.3 µM, respectively.

For the compound KVLALRL [KVL+, KVL ALRL], the MIC against S. enteritidis ATCC1891, against E. coli CR-3, in the data set on E. coli JCM1649, against S. aureus JCM2413, in the data set with S. aureus IFO13276 and against B. subtilis IFO13722 was greater than 200 µM each time. Further, the MIC is greater than 200 µM against B. sereus IFO3457, 3.1 µM against E. coli CE-273 and greater than 200 µM with S. enteritidis ATC14028.

With “KVLINWKGIAAMAKKII [KVL-mastX, KVL INWKGIAAMAKKII]”, the MIC with S. enteritidis ATCC1891 is 100 µM; against E. coli CR-3, 50 µM; in the data set with E. coli JCM1649, 100 µM; in the data set with S. aureus JCM2413, 50 µM; against S. aureus IFO13276, greater than 200 µM; against B. subtilis IFO13722, 25 µM. For the same compound, the minimum inhibitory concentration (MIC) against B. sereus IFO3457 is greater than 200 µM; with E. coli CE-273, 25 µM; in the data set on S. enteritidis ATC14028 it was greater than 200 µM.

Consider KVLKVLKVL [KVL3, KVLKVLKVL], for which the MIC in the data set with S. enteritidis ATCC1891, with E. coli CR-3, in the data set with E. coli JCM1649, in the data set on S. aureus JCM2413, against S. aureus IFO13276 and in the data set with B. subtilis IFO13722 was greater than 200 µM in each case. Also, the MIC against B. sereus IFO3457, with E. coli CE-273 and against S. enteritidis ATC14028 was greater than 200 µM throughout.

RLAWG [Ribo-1, RLAWG]: the MIC in the data set with S. enteritidis ATCC1891 was greater than 800 µM; against E. coli CR-3, 800 µM; against E. coli JCM1649 it was greater than 800 µM; against S. aureus JCM2413 it was 800 µM; against S. aureus IFO13276, greater than 800 µM; against B. subtilis IFO13722 it was greater than 800 µM. Also, the MIC with B. sereus IFO3457 is greater than 800 µM; in the data set on E. coli CE-273, greater than 800 µM; against S. enteritidis ATC14028, 800 µM.

As to “RVGINWKGIAAMAKKII [RVG-mastX, RVG INWKGIAAMAKKII]”, the MIC is 100 µM against S. enteritidis ATCC1891; 50 µM against E. coli CR-3; greater than 200 µM against E. coli JCM1649; 200 µM in the data set on S. aureus JCM2413; greater than 200 µM against S. aureus IFO13276; 50 µM with B. subtilis IFO13722. The minimal inhibitory concentration (MIC) in the data set on B. sereus IFO3457 was greater than 200 µM; in the data set on E. coli CE-273 it was 50 µM; against S. enteritidis ATC14028, 200 µM.
